Results from patent US12582132B2, “Germination/sprouting and fruit ripening regulators” (The United States of America, as represented by the …, priority 2021, dated 2026).
“Also recorded” adds a separate entry of the source.

Assays:
Assay type in all cases: in vivo
[1] = test system: Strawberry seeds (Fragaria x ananassa CV. Albion); assay: Chemical library screening for delaying strawberry seed germination; conditions: about 5 μM chemical in 0.1% TRITON X-100; strawberry seeds in 96 well plates, 25° C., vs non-treated or mock-treated seeds
Method: A chemical library containing 10,000 small compounds (˜300 Dalton) was purchased from ChemBridge Co (San Diego, California, USA). Strawberry seeds (Fragaria x ananassa CV. Albion) were purchased from Johnny's Seeds (Fairfield, Maine, USA). Five to six seeds were sterilized with 70% ethanol and added to each well of 96 well ELISA plates containing about 5 μM chemical 0.1% TRITON X-100 surfactant (polyethylene glycol tert-octylphenyl ether). One mM abscisic acid (ABA), a hormone that inhibits seed germination, and gibberellic acid (GA3), a hormone that promotes seed germination, were used as controls. Each experiment was conducted in triplicate. Plates were kept in a growth chamber at 25° C. under dark, and a 14 hour light/10 hour dark cycle was added after seed germination was observed.

[2] = test system: Strawberry fruit (Fragaria x ananassa CV. Albion); assay: Treatment of strawberry fruit by dipping: fruit ripening; conditions: for strawberry fruit ripening compared to mock-treated strawberries: 10 μM CAD or 1 mM ABA in 0.1% TRITON X-100, dipped 20 seconds eight days after pollination; for strawberry appearance (colour), FIG. 2A: 7 DAT; for strawberry appearance (colour), FIG. 2A / strawberry appearance (colour), FIG. 2B / strawberry appearance (colour), FIG. 2C / strawberry appearance (colour), FIG. 2D / strawberry appearance (colour), FIG. 2E / strawberry appearance (colour), FIG. 2F: 8 day old fruit, 10 μM CAD or 1 mM ABA in 0.1% TRITON-X100; for strawberry appearance (colour), FIG. 2B: 8 DAT; for strawberry appearance (colour), FIG. 2C: 9 DAT; for strawberry appearance (colour), FIG. 2D: 10 DAT; for strawberry appearance (colour), FIG. 2E: 11 DAT; for strawberry appearance (colour), FIG. 2F: 12 DAT
Method: Strawberry plants (Fragaria x ananassa CV. Albion) were grown in a greenhouse at 28° C. and 14-hour light/10-hour dark conditions. […] Fruits were allowed to continue growing on the plants. FIG. 1 depicts images of strawberry fruit development under standard conditions.
FIG. 2A to FIG. 2F depict images of strawberries treated with either 10 μM CAD in 0.1% TRITON X-100 surfactant; 1 mM ABA in 0.1% TRITON X-100 surfactant; or buffer (0.1% TRITON X-100 surfactant) without chemical (mock-treated). […] The CAD dosage was lower than that of ABA (10 μM vs. 1 mM), and CAD stimulated fruit ripening faster than did ABA. […] In contrast, ABA-treated fruit started to turn red 9 DAT, and reached full red 11 DAT.

[3] = test system: Cherry tomato fruits at mature green stage; assay: Treatment of cherry tomatoes by injection: fruit ripening; conditions: for cherry tomato appearance (colour), FIG. 3B / FIG. 3D: 6 DAT, injected with 10 μM CAD or 200 μM ABA in 0.1% TRITON-X100; for cherry tomato ripening stage: six days after treatment, injected with 50 μM CAD or 200 μM ABA in 0.1% TRITON X-100
Method: Cherry tomato fruits at mature green stage were purchased from Butler's Orchard (Germantown, Maryland, USA). Each fruit was injected with either 50 μM CAD in 0.1% TRITON X-100 surfactant; 200 μM ABA in 0.1% TRITON X-100 surfactant; or buffer alone (0.1% TRITON X-100 surfactant). […] FIG. 3A and FIG. 3B show images of cherry tomatoes injected with 10 μM CAD. FIG. 3C and FIG. 3D show images of cherry tomatoes injected with 200 μM ABA. FIG. 3E and FIG. 3F show images of cherry tomatoes injected with buffer alone. FIG. 3G and FIG. 3H show images of untreated tomatoes. FIG. 3A; FIG. 3C; FIG. 3E; and FIG. 3G show images taken the day of treatment. FIG. 3B; FIG. 3D; […]; and FIG. 3H show images taken 6 DAT.

[4] = test system: strawberries on the plant; assay: Effect of CAD injection on strawberry fruit ripening; conditions: for strawberry appearance (colour), FIG. 4A: 8 DAT; for strawberry appearance (colour), FIG. 4A / strawberry appearance (colour), FIG. 4B / strawberry appearance (colour), FIG. 4C / strawberry appearance (colour), FIG. 4D / strawberry appearance (colour), FIG. 4E / strawberry appearance (colour), FIG. 4F: 7 day old fruit, 10 μM CAD or 200 μM ABA in 0.1% TRITON-X100, injected; for strawberry appearance (colour), FIG. 4B: 9 DAT; for strawberry appearance (colour), FIG. 4C: 10 DAT; for strawberry appearance (colour), FIG. 4D: 11 DAT; for strawberry appearance (colour), FIG. 4E: 12 DAT; for strawberry appearance (colour), FIG. 4F: 13 DAT
Method: While still on the plant, strawberries were injected with either 10 μM CAD in 0.1% TRITON-X 100 surfactant; 200 μM ABA in 0.1% TRITON-X 100 surfactant; or 0.1% TRITON-X 100 surfactant. The strawberries were allowed to remain on the plant, and removed and photographed at 8 DAT, 9 DAT, 10 DAT, 11 DAT, 12 DAT, and 13 DAT. FIG. 4A to FIG. 4F depict images of strawberries treated with either 10 μM CAD in 0.1% TRITON-X 100 surfactant; 200 μM ABA in 0.1% TRITON-X 100 surfactant; or 0.1% TRITON-X 100 surfactant alone (mock); or no treatment.

[5] = test system: strawberry fruit; assay: CAD analogs: ability to hasten strawberry fruit ripening; conditions: 50 μM in 0.1% TRITON-X 100, applied at the same timing as CAD; compared with CAD
Method: Chemicals with similarity to CAD were tested for their ability to hasten fruit ripening.
To the inventors' knowledge, no chemical closely related to CAD is currently commercially available. A few analogs with 88-90% similarity to CAD were found in the ChemBridge database used in Example 1.
This compound has 90% similarity to CAD.

[6] = 10 μM CAD or 1 mM ABA in 0.1% TRITON X-100, dipped eight days after pollination, days after treatment

CCc1cc(Br)ccc1NC(=O)c1ccn(CC)n1 [CAD, N-(4-bromo-2-ethylphenyl)-1-ethyl-1H-pyrazole-3-carboxamide]
delaying seed germination [1]: can delay seed germination | strawberry fruit ripening compared to mock-treated strawberries [2]: stimulated strawberry fruit ripening | fruit reached full red [2, 6]: 9 DAT | strawberry appearance (colour), FIG. 2A [2]: white have a pink tint | strawberry appearance (colour), FIG. 2B [2]: with pink spots | strawberry appearance (colour), FIG. 2C [2]: mostly red | strawberry appearance (colour), FIG. 2D [2]: red | strawberry appearance (colour), FIG. 2E [2]: red allover | strawberry appearance (colour), FIG. 2F [2]: red allover | cherry tomato appearance (colour), FIG. 3B / FIG. 3D [3]: dark red | cherry tomato ripening compared to mock-treated or untreated cherry tomatoes ([3]; CAD injected in 0.1% TRITON X-100): hastening of cherry tomato ripening; also recorded: promoted fruit ripening of climacteric tomatoes | cherry tomato ripening stage [3]: fully ripen (red stage) | strawberry appearance (colour), FIG. 4A [4]: with a pink tint | strawberry appearance (colour), FIG. 4B [4]: mostly light red; also recorded: showed some color | strawberry appearance (colour), FIG. 4C [4]: red and ripe | strawberry appearance (colour), FIG. 4D [4]: red | strawberry appearance (colour), FIG. 4E [4]: bright red | strawberry appearance (colour), FIG. 4F [4]: red allover | ripened before strawberries injected with 200 μM ABA ([4]; strawberries injected with 10 μM CAD in TRITON-X100 14 days after pollination): at least two

CCn1ccc(C(=O)Nc2ccc(Br)cc2)n1 [N-(4-bromophenyl)-1-ethyl-1H-pyrazole-3-carboxamide]
effect on strawberry fruit ripening [5]: has an effect on fruit ripening; also recorded: promoted strawberry fruit ripening, although not as effectively as CAD

CCc1cccc(C)c1NC(=O)c1ccn(CC)n1 [1-ethyl-N-(2-ethyl-6-methylphenyl)-1H pyrazole-3-carboxamide]
effect on strawberry fruit ripening [5]: no obvious effect on fruit ripening

CC1=CC(=O)CC(C)(C)[C@@]1(O)/C=C/C(C)=C\C(=O)O [ABA, abscisic acid, reference compound]
strawberry fruit ripening compared to mock-treated strawberries [2]: stimulated strawberry fruit ripening | fruit began/started to turn red (start of ripening) [2, 6]: 9 DAT | fruit reached full red [2, 6]: 11 DAT | strawberry appearance (colour), FIG. 2A [2]: white with a greenish tint | strawberry appearance (colour), FIG. 2B [2]: white | strawberry appearance (colour), FIG. 2C [2]: with more pink | strawberry appearance (colour), FIG. 2D [2]: reddish | strawberry appearance (colour), FIG. 2E [2]: mostly red | strawberry appearance (colour), FIG. 2F [2]: red allover | cherry tomato appearance (colour), FIG. 3B / FIG. 3D [3]: red | cherry tomato ripening stage [3]: fully ripen (red stage) | strawberry appearance (colour), FIG. 4A [4]: white or greenish white | strawberry appearance (colour), FIG. 4B [4]: with some pink | strawberry appearance (colour), FIG. 4C [4]: pink/red | strawberry appearance (colour), FIG. 4D [4]: reddish | strawberry appearance (colour), FIG. 4E [4]: red | strawberry appearance (colour), FIG. 4F [4]: red with some white at the top

CCn1cc(Br)c(C(=O)Nc2ccccc2C(C)(C)C)n1 [4-bromo-N-(2-tert-butylphenyl)-1-ethyl-1H-pyrazole-3-carboxamide]
effect on strawberry fruit ripening [5]: a lower effect on fruit ripening than CAD
